Test results reported in patent US20100204145A1, “USE OF A PEPTIDE AS A THERAPEUTIC AGENT” (priority 2007, published 2010).
Ends that are not written are not given here.

Experiments:
HIV-1IIIB = assay: HIV-1 antiviral assay in CEM-SS cells (MTS readout); format: cell-based; conditions: positive controls
Interleukin-5 (IL-5) = assay: Th1/Th2 cytokine profiling assay, IL-5; format: cell-based; conditions: 10 micrograms per ml; Ovalbumin-restimulated spleen cells of immunized Balb/c mice; 72 hours
Text: (§1) The Balb/c mice (originated in 1923, it is a popular strain and is used in many different research disciplines. Also classified as an inbred from the production of 20 or more successive brother-sister matings, the Balb/c mouse is albino and small in size) were immunized on Days 1, 15, and 29 with Ovalbumin (Ovalbumin is the main protein found in egg white, commonly used to stimulate an immunological reaction in test animals) in PBS (5 micrograms/injection). On day 50, spleens of the mice were harvested (3 weeks after last boost with Ovalbumin). […] Thereafter, additional Ovalbumin was added to the cells at 10 micrograms/ml for in vitro restimulation of the cells. 72 hours later, cell supernatants were harvested and assayed using the Becton Dickinson Mouse Th1/Th2 Cytokine CBA Kit. This kit can be used to measure Interleukin-2 (IL-2), Interleukin-4 (IL-4), Interleukin-5 (IL-5), Interferon-γ (IFN-γ), and Tumor Necrosis Factor-α (TNF-α) protein levels in a single sample. The kit performance has been optimized for analysis of physiologically relevant concentrations (μg/ml levels) of specific cytokine proteins in tissue culture supernatants and serum samples.

Interferon-γ (IFN-γ) = assay: Th1/Th2 cytokine profiling assay, IFN-γ; format: cell-based; conditions: 10 micrograms per ml; Ovalbumin-restimulated spleen cells of immunized Balb/c mice; 72 hours
Text: (§2) The Balb/c mice (originated in 1923, it is a popular strain and is used in many different research disciplines. Also classified as an inbred from the production of 20 or more successive brother-sister matings, the Balb/c mouse is albino and small in size) were immunized on Days 1, 15, and 29 with Ovalbumin (Ovalbumin is the main protein found in egg white, commonly used to stimulate an immunological reaction in test animals) in PBS (5 micrograms/injection). On day 50, spleens of the mice were harvested (3 weeks after last boost with Ovalbumin). […] Thereafter, additional Ovalbumin was added to the cells at 10 micrograms/ml for in vitro restimulation of the cells. 72 hours later, cell supernatants were harvested and assayed using the Becton Dickinson Mouse Th1/Th2 Cytokine CBA Kit.

Interleukin-2 (IL-2) = assay: Th1/Th2 cytokine profiling assay, IL-2; format: cell-based; conditions: 10 micrograms per ml; Ovalbumin-restimulated spleen cells of immunized Balb/c mice; 72 hours
Text: as §1

Interleukin-4 (IL-4) = assay: Th1/Th2 cytokine profiling assay, IL-4; format: cell-based; conditions: 10 micrograms per ml; Ovalbumin-restimulated spleen cells of immunized Balb/c mice; 72 hours
Text: as §1

[1] = tested on: Tumor Necrosis Factor-α (TNF-α); assay: Th1/Th2 cytokine profiling assay, TNF-α; format: cell-based; conditions: 10 micrograms per ml; Ovalbumin-restimulated spleen cells of immunized Balb/c mice; 72 hours
Text: as §2

RAW 264.7 cells = assay: Phagocytosis assay (Fluorescein-labeled Escherichia coli, flow cytometry); format: cell-based, Mouse; conditions: 10 micrograms per ml, combination peptide 1:peptide 2 1.10 mole:0.90 mole
Human A549 cells = assay: Apoptosis prevention assay (C2 ceramide, Annexin-5); format: cell-based; conditions: 10 micrograms per ml, 30 min pretreatment, then C2 ceramide

Molecule	antiviral activity of positive control compounds (HIV-1) (HIV-1IIIB)	IL-5 spleen cells; TH2 response (% of control) (Interleukin-5 (IL-5))	IFNγ spleen cells; TH1 response (% of control) (Interferon-γ (IFN-γ))	IL-2 spleen cells (% of control) (Interleukin-2 (IL-2))	IL-4 spleen cells; TH2 response (% of control) (Interleukin-4 (IL-4))	TNF-a spleen cells; TH1 response (% of control) [1]	increase on the phagocytic activity of murine macrophages (RAW 264.7 cells)	prevention (reduction) of ceramide-induced apoptosis on human lung cells (Human A549 cells)
Cc1cn([C@H]2C[C@H](N=[N+]=[N-])[C@@H](CO)O2)c(=O)[nH]c1=O [AZT]	expected levels of antiviral activity							
Tyr-Gly-Gly-Phe-Leu-Arg-Arg-OH (YGGFLRR-OH) [peptide 2]		66.0 % of control	126.8 % of control	93.8 % of control	81.2 % of control	90.3 % of control	25.7%	11.5%
CCNC(=O)[C@@H]1CCCN1C(=O)[C@H](CCCNC(=N)N)NC(=O)[C@H](CC(C)C)NC(=O)[C@@H](COC(C)(C)C)NC(=O)[C@H](Cc1ccc(O)cc1)NC(=O)[C@H](CO)NC(=O)[C@H](Cc1c[nH]c2ccccc12)NC(=O)[C@H](Cc1cnc[nH]1)NC(=O)[C@@H]1CCC(=O)N1 [peptide 1, Pyr-His-Trp-Ser-Tyr-D-Ser(tBu)-Leu-Arg-Pro-NHEt]		80.4 % of control	76.6 % of control	175.3 % of control	131.6 % of control	121.2 % of control	31.4%	26.4%
CC(C)(C)NC(=O)[C@@H]1CN(Cc2cccnc2)CCN1C[C@@H](O)C[C@@H](Cc1ccccc1)C(=O)N[C@H]1c2ccccc2C[C@H]1O [indinavir]	expected levels of antiviral activity							
